Source: patent US5652222A, “Selective inhibition of leukemic cell proliferation by bcr-abl antisense oligonucleotides” (Temple University-of The Commonwealth System of Higher …, priority 1993, dated 1997)

Columns and labels:
[1] = tested on: β2-microglobulin transcript; experiment: β2-microglobulin transcript in residual colonies (RT-PCR control); format: cell-based, human; settings: antisense-treated colonies
Description: (§1) To provide unambiguous evidence of the elimination of Philadelphia chromosome blast cells, residual cells from Example 3 were evaluated for the expression of bcr-abl transcripts, since the levels of this transcript should reflect the number of surviving leukemia cells. For this purpose, total RNA was isolated from a pool of colonies from Example 3, and the levels of bcr-abl transcripts were evaluated. Levels of β2 -microglobulin transcript were also determined as a control. The β2 -microglobulin gene is expressed independent of cell cycle.
(§2) Accordingly, bcr-abl and β2 -microglobulin transcripts were reverse-transcribed and amplified in the presence of specific primers and Taq polymerase as described by Rappollee, Science 241, 708-712 (1988). The amplification products were separated on a 2% agarose gel and transferred to a nitrocellulose filter, which was hybridized with a synthetic 40-nucleotide c-abl fragment and a 40-nucleotide β2 -microglobulin fragment and labeled with [γ-^32 P]-ATP and polynucleotide kinase. The c-abl probe recognizes the amplified 257-nucleotide sequence of FIG. 1, which contains the L-6 type bcr-abl junction. The β2 -microglobulin probe recognizes the 195-nucleotide sequence contained within 5' and 3' β2 -microglobulin primers (Id.; Suggs et al., Proc. Natl. Acad. Sci. U.S.A. 78, 6613 (1981)).

[2] = tested on: 1:1 mixtures of normal marrow progenitors and CML blast crisis cells; experiment: CFU-GM + CFU-L colony formation of 1:1 mixtures of normal marrow progenitors and CML blast crisis cells; format: cell-based, human; settings: Table 3; 1:1 mixture; 40 μg/ml at 0 h, 20 μg/ml 18 h later; 12 days; mean ± SD; control 978 ± 24
Text: Normal bone marrow mononuclear cells (MNC) were obtained by aspiration from consenting volunteers and enriched for hematopoietic progenitors as previously reported by numerous investigators (Zamecnick et al., Proc. Natl. Acad. Sci. U.S.A. 83, 4143-4147 (1986); Caracciolo et al., J. Clin. Invest. 85, 55-61 (1990)). In brief, marrow cells were subjected to Ficoll-Hypaque density gradient sedimentation and then depleted of adherent monocyte-macrophage and T-lymphocytes by adherence to plastic Petri dishes and rosetting with neuraminidase-treated sheep red blood cells, respectively. Philadelphia chromosome-positive blast cells were isolated by Ficoll-Hypaque density gradient sedimentation from a CML patient in blast crisis (L-6 type junction). […] The residual non-blast cells had the morphological appearance of small lymphocytes. 25,000 MNC and 25,000 CML blast cells were combined and incubated with bcr-abl breakpoint-Specific antisense oligomer (SEQ ID NO:3) (40 μg/ml at h 0; 20 μg/ml 18 hours later) or with a 4 nucleotide mismatch bcr-abl antisense oligomer (SEQ ID NO:2) (40 μg/ml at 0 h; 20 μg/ml 18 hours later) or left untreated. […] At the end of the incubation period colonies were counted. […]

[3] = tested on: Philadelphia chromosome-positive blast cells of CML patients in blast crisis, L-6 (b2a2) type junction; experiment: Colony formation of CML blast crisis patient cells expressing the b2a2 (L-6) junction; format: cell-based, human
bcr-abl transcripts = experiment: bcr-abl transcript in residual colonies (RT-PCR); format: cell-based, human; settings: colonies arising from mixed cell populations of Example 3
Description: as §1, §2

BV173 cells = experiment: Survival of leukemic SCID mice; format: in vivo, SCID mice (human leukemic cells); settings: treatment starting from days +7 or +21 (FIG. 12)
Text: To determine the lethal dose of BV173 cells in the SCID mice, we injected from 10^3 to 10^7 cells into the tail vein and monitored survival at various times postinjection. Mice injected with 10^7, 10^6, 10^5, or 10^4 BV173 cells died 8-10, 9-12, 13-15, or 14-22 weeks later, respectively, due to leukemia cell growth as confirmed on necroscopy. Spleen weight was about 40 times higher than that in noninjected SCID mice while liver and kidneys had numerous metastases and were enlarged 10-fold as compared to noninjected mice. Mice injected with 10^3 BV173 cells were still alive 35 weeks post implantation, and leukemia was never detected. From this study, 10^6 cells was taken as a lethal dose.
To determine whether synthetic phosphorothioate oligodeoxynucleotides targeted against the bcr-abl junction of […] cells would modify the disease process in SCID mice. SCID mice were injected with 10^6 BV173 cells. The mice then received 1 mg of sense (ATCAATAAGG AAGCCCTTCAGCG, SEQ ID NO:34) or antisense ([…] ATTGAT, SEQ ID NO:29) b2/a2 bcr-abl phosphorothioate oligodeoxynucleotides (pyrogen leven <1 Eu/mg; 0.2 ml in Iscove modified Dulbecco medium in 5-10 seconds) intravenously for each of 9 consecutive days, beginning either 7 or 21 days after introducing 10^6 BV173 cells. Control mice received the diluent (iscove's modified Dulbecco medium) only. These time points approximate distinct disease stages in humans.

SEQ ID NO:3: synthetic 18-mer GAAGGGCTTC TTCCTTAT specific for the 18-nucleotide target sequence of the L-6 bcr-abl junction (antisense GAAGGGCTTCTTCCTTAT; chemistry not given here)
expression of β2-microglobulin [1]: clearly detectable | Colonies or Clusters, CFU-GM + CFU-L [2]: 450 ± 42 colonies or clusters | % Inhibition ([3]; Table 1, patient 1, number of colonies vs untreated): 75% | Number of Colonies, Antisense-treated ([3]; Table 1, patient 3, 40 μg/ml at start, 20 μg/ml 18 h later, untreated 480 ± 88): 50 ± 12 colonies | bcr-abl transcript in RNA from colonies (bcr-abl transcripts): No bcr-abl transcript was detected

SEQ ID NO:34: phosphorothioate sense sequence ATCAATAAGGAAGCCCTTCAGCG (23-mer b2a2 sense) (sense ATCAATAAGGAAGCCCTTCAGCG; all phosphorothioate, sugars by position and methylation of C not given here)
mortality / survival outcome (BV173 cells): died with diffuse leukemia | survival after i.v. injection of 10^6 BV173 cells (BV173 cells): 10-13 weeks
